According to ChEMBL document CHEMBL1201862, “PubChem BioAssay data set” (2004):
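Exposure lasted 48 hours, with cells grown in 96-well plates and compounds tested at five concentrations. GI50 marks 50% less growth.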 Active and inactive are the calls of the source. Cut-off read from the data, not from the text of the source: active = GI50 up to about 1.1 µM and inactive = higher.

Experiments:
Assay in all cases: DTP human tumour cell line panel, 48 h
SK-MEL-2 = system: SK-MEL-2
HT-29 = system: HT-29
NCI-H226 = system: NCI-H226
M14 = system: M14
MOLT-4 = system: MOLT-4
RXF 393 = system: RXF 393
SK-MEL-5 = system: SK-MEL-5
HCC 2998 = system: HCC 2998
DU-145 = system: DU-145
HCT-116 = system: HCT-116
SNB-75 = system: SNB-75
SK-MEL-28 = system: SK-MEL-28
SNB-19 = system: SNB-19
MCF7 = system: MCF7
OVCAR-4 = system: OVCAR-4
SW-620 = system: SW-620
ACHN = system: ACHN
HL-60 = system: HL-60
SR = system: SR

Row | Structure (SMILES) | GI50 (SK-MEL-2) | GI50 (HT-29) | GI50 (NCI-H226) | GI50 (M14) | GI50 (MOLT-4) | GI50 (RXF 393) | GI50 (SK-MEL-5) | GI50 (HCC 2998) | GI50 (DU-145) | GI50 (HCT-116) | GI50 (SNB-75) | GI50 (SK-MEL-28) | GI50 (SNB-19) | GI50 (MCF7) | GI50 (OVCAR-4) | GI50 (SW-620) | GI50 (ACHN) | GI50 (HL-60) | GI50 (SR)
1 | O=C1NC(=S)N/C1=C\c1ccc(Cl)cc1 | > 100 µM (inactive) | > 100 µM (inactive) | > 100 µM (inactive) | > 100 µM (inactive) | 80.2 µM (inactive) | > 100 µM (inactive) | 41.8 µM (inactive) | > 100 µM (inactive) | 99.8 µM (inactive) | > 100 µM (inactive) | > 100 µM (inactive) | > 100 µM (inactive) | > 100 µM (inactive) | > 100 µM (inactive) | 39.2 µM (inactive) | > 100 µM (inactive) | – | – | –
2 | NC(=S)N/N=C(\C(=O)Nc1cccc([N+](=O)[O-])c1)c1nc2ccc([N+](=O)[O-])cc2nc1O | > 100 µM (inactive) | > 100 µM (inactive) | > 100 µM (inactive) | 88.9 µM (inactive) | 18.2 µM (inactive) | > 100 µM (inactive) | 30.9 µM (inactive) | 21.9 µM (inactive) | – | 58.5 µM (inactive) | > 100 µM (inactive) | > 100 µM (inactive) | > 100 µM (inactive) | – | > 100 µM (inactive) | > 100 µM (inactive) | 21.4 µM (inactive) | 19.9 µM (inactive) | –
3 | COc1ccc(S(=O)(=O)NNS(C)(=O)=O)cc1 | 60.5 µM (inactive) | > 100 µM (inactive) | > 100 µM (inactive) | > 100 µM (inactive) | > 100 µM (inactive) | > 100 µM (inactive) | > 100 µM (inactive) | > 100 µM (inactive) | – | > 100 µM (inactive) | > 100 µM (inactive) | – | > 100 µM (inactive) | – | > 100 µM (inactive) | > 100 µM (inactive) | > 100 µM (inactive) | > 100 µM (inactive) | > 100 µM (inactive)
4 | O=C(O)c1ccc(P(=O)(O)c2ccc(C(=O)O)cc2Br)c(Br)c1 | > 100 µM (inactive) | – | > 100 µM (inactive) | > 100 µM (inactive) | > 100 µM (inactive) | > 100 µM (inactive) | > 100 µM (inactive) | > 100 µM (inactive) | > 100 µM (inactive) | > 100 µM (inactive) | > 100 µM (inactive) | > 100 µM (inactive) | > 100 µM (inactive) | > 100 µM (inactive) | – | > 100 µM (inactive) | – | > 100 µM (inactive) | –
5 | O=[N+]([O-])C(Cl)C(Cl)C(Cl)=C(Cl)Cl (stereo not given) | – | 17.6 µM (inactive) | > 100 µM (inactive) | 13.8 µM (inactive) | 19.1 µM (inactive) | 18.5 µM (inactive) | 15 µM (inactive) | > 40.9 µM (inactive) | 88.7 µM (inactive) | 19.4 µM (inactive) | 32.7 µM (inactive) | 18.5 µM (inactive) | 54 µM (inactive) | 13.8 µM (inactive) | 16.7 µM (inactive) | 18 µM (inactive) | 16.4 µM (inactive) | 10.4 µM (inactive) | –
6 | COc1ccc(/C=C/C(=O)CC(=O)/C=C/c2ccc(OC)cc2)cc1 | > 100 µM (inactive) | 23.1 µM (inactive) | > 100 µM (inactive) | 77.8 µM (inactive) | 28 µM (inactive) | 23.8 µM (inactive) | 67.6 µM (inactive) | > 100 µM (inactive) | 74.5 µM (inactive) | 15.3 µM (inactive) | > 100 µM (inactive) | 36.4 µM (inactive) | 89.9 µM (inactive) | 64.9 µM (inactive) | – | 52.5 µM (inactive) | – | 25.6 µM (inactive) | –
7 | Cc1ccc(S(=O)(=O)n2c3ccc(Br)cc3c3nc4ccccc4nc32)cc1 | > 100 µM (inactive) | > 100 µM (inactive) | 0.183 µM (active) | > 100 µM (inactive) | > 100 µM (inactive) | > 100 µM (inactive) | > 100 µM (inactive) | > 100 µM (inactive) | > 100 µM (inactive) | > 100 µM (inactive) | > 100 µM (inactive) | > 100 µM (inactive) | > 100 µM (inactive) | – | 72.8 µM (inactive) | > 100 µM (inactive) | > 100 µM (inactive) | – | –
8 | S=c1oc(CCCCCCCCc2nn(CNc3ccc(Cl)cc3)c(=S)o2)nn1CNc1ccc(Cl)cc1 | > 100 µM (inactive) | > 100 µM (inactive) | > 100 µM (inactive) | 12 µM (inactive) | > 100 µM (inactive) | > 100 µM (inactive) | 3.27 µM (inactive) | > 100 µM (inactive) | > 100 µM (inactive) | > 100 µM (inactive) | > 100 µM (inactive) | 20.3 µM (inactive) | > 100 µM (inactive) | > 100 µM (inactive) | > 100 µM (inactive) | > 100 µM (inactive) | 72.3 µM (inactive) | – | –
9 | Cc1ccc(Cc2n[nH]c(=O)n2/N=C\CC/C=N\n2c(Cc3ccc(C)cc3)n[nH]c2=O)cc1 | 28 µM (inactive) | 28.8 µM (inactive) | 24.4 µM (inactive) | 27.3 µM (inactive) | 19.1 µM (inactive) | 20.9 µM (inactive) | 42.2 µM (inactive) | > 100 µM (inactive) | > 100 µM (inactive) | 33.1 µM (inactive) | 16.6 µM (inactive) | 33.5 µM (inactive) | 39.6 µM (inactive) | 23.9 µM (inactive) | > 100 µM (inactive) | 43 µM (inactive) | 47.1 µM (inactive) | 14.6 µM (inactive) | –
10 | OCCN(CO)CO | > 100 µM (inactive) | > 100 µM (inactive) | > 100 µM (inactive) | > 100 µM (inactive) | – | > 100 µM (inactive) | > 100 µM (inactive) | > 100 µM (inactive) | > 100 µM (inactive) | > 100 µM (inactive) | > 100 µM (inactive) | > 100 µM (inactive) | > 100 µM (inactive) | > 100 µM (inactive) | > 100 µM (inactive) | > 100 µM (inactive) | > 100 µM (inactive) | – | –
11 | O=C(O)c1cc2ccccc2c(S(=O)(=O)O)c1O | > 100 µM (inactive) | > 100 µM (inactive) | – | > 100 µM (inactive) | > 100 µM (inactive) | > 100 µM (inactive) | > 100 µM (inactive) | > 100 µM (inactive) | > 100 µM (inactive) | > 100 µM (inactive) | > 100 µM (inactive) | > 100 µM (inactive) | > 100 µM (inactive) | > 100 µM (inactive) | > 100 µM (inactive) | > 100 µM (inactive) | > 100 µM (inactive) | > 100 µM (inactive) | –
12 | C=C1C(=O)OC2C1CC(OC(C)=O)/C(C)=C/CCC1(C)OC21 (stereo not given) | > 100 µM (inactive) | > 100 µM (inactive) | > 100 µM (inactive) | > 100 µM (inactive) | > 100 µM (inactive) | – | > 100 µM (inactive) | > 100 µM (inactive) | > 100 µM (inactive) | > 100 µM (inactive) | > 100 µM (inactive) | > 100 µM (inactive) | > 100 µM (inactive) | > 100 µM (inactive) | > 100 µM (inactive) | > 100 µM (inactive) | > 100 µM (inactive) | > 100 µM (inactive) | –
13 | O=[N+]([O-])c1ccc(/N=N\c2c(O)ccc3ccccc23)c([N+](=O)[O-])c1 | > 100 µM (inactive) | > 100 µM (inactive) | > 100 µM (inactive) | > 100 µM (inactive) | 70.6 µM (inactive) | > 100 µM (inactive) | > 100 µM (inactive) | > 100 µM (inactive) | > 100 µM (inactive) | > 100 µM (inactive) | > 100 µM (inactive) | > 100 µM (inactive) | > 100 µM (inactive) | > 100 µM (inactive) | > 100 µM (inactive) | > 100 µM (inactive) | > 100 µM (inactive) | – | –
14 | CC1(CC2=C(C(=O)NCCO[Si](C)(C)C(C)(C)C)C3(OCCO3)C2=O)OCCO1 | > 100 µM (inactive) | > 100 µM (inactive) | 71.1 µM (inactive) | > 100 µM (inactive) | 61.1 µM (inactive) | – | > 100 µM (inactive) | – | > 100 µM (inactive) | 68.5 µM (inactive) | 36.5 µM (inactive) | > 100 µM (inactive) | > 100 µM (inactive) | > 100 µM (inactive) | > 100 µM (inactive) | > 100 µM (inactive) | > 100 µM (inactive) | 29.1 µM (inactive) | –
15 | CC(=O)C1=C(C)Cn2c(=O)c3ccccc3c(=O)n2C1 | > 100 µM (inactive) | > 100 µM (inactive) | > 100 µM (inactive) | > 100 µM (inactive) | > 100 µM (inactive) | > 100 µM (inactive) | > 100 µM (inactive) | > 100 µM (inactive) | – | > 100 µM (inactive) | > 100 µM (inactive) | > 100 µM (inactive) | > 100 µM (inactive) | – | > 100 µM (inactive) | > 100 µM (inactive) | > 100 µM (inactive) | > 100 µM (inactive) | > 100 µM (inactive)
16 | CC1=CC(=O)/C(=C/Nc2nc(-c3ccc([N+](=O)[O-])cc3)cs2)C(=O)O1 | > 100 µM (inactive) | > 100 µM (inactive) | > 100 µM (inactive) | > 100 µM (inactive) | 61.4 µM (inactive) | 27.7 µM (inactive) | > 100 µM (inactive) | > 100 µM (inactive) | > 100 µM (inactive) | > 100 µM (inactive) | > 100 µM (inactive) | – | 86.5 µM (inactive) | > 100 µM (inactive) | > 100 µM (inactive) | > 100 µM (inactive) | > 100 µM (inactive) | 19.9 µM (inactive) | –
17 | O=C1C=CC2CCC1C2 (stereo not given) | 21.4 µM (inactive) | 32.3 µM (inactive) | 39.4 µM (inactive) | 27.4 µM (inactive) | 26.4 µM (inactive) | – | 28.6 µM (inactive) | 30.1 µM (inactive) | 34.2 µM (inactive) | 23.4 µM (inactive) | 27.5 µM (inactive) | 23.5 µM (inactive) | 28.4 µM (inactive) | 31.1 µM (inactive) | – | 32.1 µM (inactive) | 40.3 µM (inactive) | 19.2 µM (inactive) | –
